Assay results as given in US20250215021A1, “SYSTEMS AND METHODS UTILIZING THERANOSTIC AGENTS FOR BPCT AND BNCT FOR TARGETED CANCER TREATMENT” (University of Virginia Patent Foundation, priority 2022, published 2025).

System: MCF-10A epithelial cells
Assay: Cell uptake in MCF-10A (normal cell control)
Assay type: cell-based
Conditions: all concentrations tested
Description: Referring now to FIGS. 6A-6B, after confirming the structure and purity of the compound, further biological evaluation was performed. Preferential cancer cell uptake was evaluated in human breast cancer cells MCF-7 compared with MCF-10A epithelial cells. […] The cancer cell uptake was also confirmed by confocal microscopy. The concentration and constitutional stability of the compound in cancer cells was established by lysing the MCF-7 incubated with 5 μM of compound for 4 hrs. […] Inherent toxicity of the compound to both normal and cancer cells was evaluated using HMCD and 1-amino-1-carbadodecaborate as controls.

For CC1(C)C(/C=C/C2=C(Cl)C(=C/C=C3/N(CCCCCC(=O)O)c4ccccc4C3(C)C)/CCC2)=[N+](CCCCS(=O)(=O)[O-])c2ccccc21 [parent HMCD], the “uptake in MCF-10A cells” value was “no or poor uptake”.
